According to patent US9913468B2, “Microbicidal composition” (Dow Global Technologies LLC, priority 2013, dated 2018):
Like-named read-outs stand apart in the source and are kept apart here. One block for each molecule: values may come before it.

Key:
Type in all cases: cell-based
[1] = system: Staphylococcus aureus ATCC #6538; experiment: MIC / synergy index test in 96 well microtiter plates, Gram positive bacteria; conditions: S. aureus, 1/10 TSB; for MIC: Staphylococcus aureus, ATCC6538, 24 h, DTEA alone, read-out: MIC alone, CB (compound B)
Method: (§1) Surfactants and biocides were evaluated for synergy by determining the synergy index (S.I.) of the combination. Synergy index was calculated based on minimum inhibitory concentrations (MIC) of two antimicrobial compounds (A and B) alone and in combinations. The tests organisms were Gram negative bacteria (Pseudomonas aeruginosa ATCC #15442), Gram positive bacteria (Staphylococcus aureus ATCC #6538), yeast (Candida albicans ATCC#10203) and mold (Aspergillus niger ATCC#16404). Contact time for the bacteria was 24 and 48 hours, yeast was 48 and 72 hrs, and 3 and 7 days for mold. The test was carried out in 96 well microtiter plates. R^1O(CH2CH(CH3)O)5(CH2CH2O)9H, where R^1 is 2-ethylhexyl Surf. A R^2O(CH2CH(CH3)O)3(CH2CH2O)5H Surf. D R^2O(CH2CH(CH3)O)3(CH2CH2O)7H Surf. E In Surf. D and Surf. E, R^2 is a mixture of C8-C14 linear alkyl groups (70% C8-C10 linear alkyl and 30% C12-C14 linear alkyl) Inoculums Used
(§2) The pH of the Triptic soy broth was 7.3 and the Potato dextrose broth was 5.1.
(§3) SI is calculated as follows: Ca/CA+Cb/CB=Synergy Index (“SI”) Wherein: • CA=concentration of compound A in ppm, acting alone, which produced an end point (MIC of Compound A). • Ca=concentration of compound A in ppm, in the mixture, which produced an end point. • CB=concentration of compound B in ppm, acting alone, which produced an end point (MIC of Compound B). • Cb=concentration of compound B in ppm, in the mixture, which produced an end point. When the sum of Ca/CA and Cb/CB is greater than one, antagonism is indicated.

[2] = system: Candida albicans ATCC#10203; experiment: MIC / synergy index test in 96 well microtiter plates, yeast; conditions: C. albicans, PDB; for MIC: Candida albicans, ATCC10203, 48 h, DTEA alone, read-out: MIC alone, CB (compound B)
Method: as §1, §2, §3

[3] = system: Aspergillus niger ATCC#16404; experiment: MIC / synergy index test in 96 well microtiter plates, mold; conditions: 3rd day, PDB; for MIC: Aspergillus niger, ATCC16404, DTEA alone, A. niger, read-out: MIC alone, CB (compound B)
Method: as §1, §2, §3

[4] = system: any organism tested (Pseudomonas aeruginosa, Staphylococcus aureus, Candida albicans, Aspergillus niger); experiment: Synergy of other biocides paired with the surfactants, any organism tested; conditions: listed under Surf. D; except for one data point
Method: as §1
(§4) SI is calculated as follows: Ca/CA+Cb/CB=Synergy Index (“SI”) Wherein: • CA=concentration of compound A in ppm, acting alone, which produced an end point (MIC of Compound A). • Ca=concentration of compound A in ppm, in the mixture, which produced an end point. • CB=concentration of compound B in ppm, acting alone, which produced an end point (MIC of Compound B). • Cb=concentration of compound B in ppm, in the mixture, which produced an end point. […]

[5] = system: Pseudomonas aeruginosa ATCC #15442; experiment: MIC / synergy index test in 96 well microtiter plates, Gram negative bacteria; conditions: ATCC15442, 24 h, read-out: MIC alone, CB (compound B)
Method: as §1, with “Used […]” for “Used”
as §4

[6] = inoculum 1.156E+06, Surf. A series

Molecule: R^1O(CH2CH(CH3)O)5(CH2CH2O)9H, where R^1 is 2-ethylhexyl [Surf. A]
- MIC alone, CA (compound A) ([1]; Surf. A alone, 24 hrs, inoculum 1.156E+06): >20000 ppm
- MIC alone, CA (compound A) ([2]; Surf. A alone, 48 hrs, inoculum 1.156E+06): >20000 ppm
- MIC alone, CA (compound A) ([3]; Surf. A alone, inoculum 1.156E+06): >20000 ppm

Molecule: Cn1sc2ccccc2c1=O [MBIT]
- Ratio of surfactant to biocide where synergy was observed [4]: synergistic only at 1:0.05 or worse

Molecule: CCCCNC(=O)OCC#CI [IPBC]
- Ratio of surfactant to biocide where synergy was observed [4]: synergistic only at 1:0.05 or worse

- MIC [1, 6]: 4 µg/mL
- MIC ([1]; inoculum 1.156E+06, Surf. E series): 5 µg/mL
- MIC ([1]; inoculum 1.8E+05, Surf. D series): 5 µg/mL
- MIC [5]: 20 µg/mL
- MIC [2, 6]: 50 µg/mL
- MIC ([2]; inoculum 1.8E+06, Surf. E series): 50 µg/mL
- MIC ([2]; inoculum 5.72E+05, Surf. D series): 40 µg/mL
- MIC [3, 6]: 200 µg/mL
- MIC ([3]; inoculum 1.156E+06, Surf. D series): 100 µg/mL
- MIC ([3]; inoculum 1.56E+06, Surf. E series): 200 µg/mL
Molecule: CCCCCCCCCCSCCN [DTEA, 2-decylthioethylamine]
